Laboratory results reported in patent US11760773B2, “Small molecule drug conjugates of gemcitabine monophosphate” (MaveriX Oncology, Inc., priority 2018, dated 2023).
Blank lines part the entries; values can stand above or below the molecule they belong to.

Assays:
Human plasma stability = assay type: in vitro ADME; conditions: 3 μM, 37° C.
Procedure: (§1) Method: Assay was carried out in 96-well microtiter plates. Compounds were incubated in replicates (n=2) for 0, 5, 15, 30, and 45 minutes at 37° C. Reaction mixtures (20 μL) contained a final concentration of 3 μM test compound in human plasma. Eucatropine included as positive control to verify assay performance. Linear regression of semi-log plot of % remaining of compounds versus time used to determine the half-life t½ values.

[1] = CD-1 mouse plasma stability; assay type: in vitro ADME; conditions: 3 μM, 37° C.
Procedure: as §1, with “fresh CD-1 mouse” for “human”, “t1/2” for “t½”

Rat plasma stability = assay type: in vitro ADME; conditions: 3 μM, 37° C.
Procedure: as §1, with “fresh Sprague Dawley rat” for “human”, “is a” for “included as”, “t1/2” for “t½”

[2] = Mouse plasma stability (Compound 1); assay type: in vitro ADME; conditions: 37° C.
[3] = Metabolic stability in liver hepatocytes, human; assay type: in vitro ADME
[4] = Metabolic stability in liver hepatocytes, mouse; assay type: in vitro ADME
[5] = Metabolic stability in liver hepatocytes, dog; assay type: in vitro ADME
[6] = Metabolic stability in liver hepatocytes, monkey; assay type: in vitro ADME
[7] = Plasma PK of Int 3-3 in CD-1 mice (study c); assay type: in vivo; conditions: after iv Int 3-3 8.8 mg/kg
Procedure: Objectives: to determine the plasma pharmacokinetics of Int 3-3 following a single intravenous infusion of Int 3-3 at 8.83 mg/kg in CD-1 mice
PK measurements: compare PK parameters C0, CL, Vdss, Cmax, tmax, t1/2, AUC(0-t), AUC(0-inf), MRT(0-t), MRT(0-inf) for Int 3-3.

Human liver S9 stability = assay type: in vitro ADME
Mouse liver S9 stability = assay type: in vitro ADME
[8] = Monkey liver S9 stability; assay type: in vitro ADME
Dog liver S9 stability = assay type: in vitro ADME
Rat liver S9 stability = assay type: in vitro ADME
[9] = Comparative plasma PK of Compound 1 versus Int 1-4 in male CD-1 mice (study b); assay type: in vivo
Procedure: Objectives: to compare the plasma pharmacokinetics and stability of Compound 1 with its non-phosphorylated SMDC analog (Int 1-4) and in plasma following a single intravenous infusion administration of Compound 1 at 11.6 mg/kg and 23.2 mg/kg with Int 1-4 (formulation F1 & F2) at 10.0 mg/kg in male CD-1 mice
PK measurements: compare PK parameters C0, CL, Vdss, Cmax, tmax, t1/2, AUC(0-t), AUC(0-inf), MRT(0-t), MRT(0-inf) for Compound 1 and Int 1-4

[10] = negative value indicates compound is stable

half-life at 3 μM (Human plasma stability; read-out: t1/2 Mean ± SE): 15.1 ± 1.1 min | Slope Mean ± SE (Human plasma stability; semi-log plot of % remaining versus time, in min-1 (unit assumed)): −0.04591 ± 0.003277 | Slope Mean ± SE ([1]; in min-1 (unit assumed)): −0.03084 ± 0.003016 | half-life at 3 μM ([1]; fresh CD-1 mouse plasma, read-out: t1/2 Mean ± SE): 22.5 ± 2.2 min | Slope Mean ± SE (Rat plasma stability; Sprague Dawley rat plasma): −0.007881 ± 0.00112 | half-life at 3 μM (Rat plasma stability; fresh Sprague Dawley rat plasma, read-out: t1/2 Mean ± SE): 87.9 ± 12.5 min | Slope Mean ± SE ([2]; 3 μM): −0.03084 ± 0.003016 | half-life at 3 μM ([2]; CD-1, 3 μM, read-out: t1/2 Mean ± SE): 22.5 ± 2.2 min
Molecule: CC1CC(OC(=O)C(O)c2ccccc2)CC(C)(C)N1C (centres unmarked) [Eucatropine, reference compound]

Molecule: C=CCN1CC[C@]23c4c5ccc(O)c4O[C@H]2C(=O)CC[C@@]3(O)[C@H]1C5 [Naxalone]
Slope Mean ± SE [3]: −0.01335 ± 0.000878 | t1/2 mean ± SE [3]: 51.9 ± 3.4 min | Slope Mean ± SE [4]: −0.01828 ± 0.000731 | t1/2 mean ± SE [4]: 37.9 ± 1.5 min | Slope Mean ± SE [5]: −0.01302 ± 0.001119 | t1/2 mean ± SE [5, 10]: 53.2 ± 4.6 min | Slope Mean ± SE [6]: −0.02948 ± 0.001002 | t1/2 mean ± SE [6, 10]: 23.5 ± 0.8 min

AUC0-inf/AUC0-last [7]: 101% | AUC(0-t) ([7]; mouse): 3480 ng·h/mL | C0 ([7]; mouse): 45900 ng/mL | clearance ([7]; mouse): 43.3 mL/min/kg | half-life ([7]; mouse): 74.4 min | AUC(0-inf) ([7]; mouse, read-out: AUC0-inf): 3510 ng·h/mL | MRT inf ([7]; mouse, read-out: MRT0-inf): 46 min | MRT last ([7]; mouse, read-out: MRT0-last): 42.2 min | Vd ([7]; mouse, read-out: Vdss): 1.83 L/kg
Molecule: [2H]C([2H])([2H])Oc1cc(OC([2H])([2H])[2H])c2oc(COC(=O)Nc3ccn([C@@H]4O[C@H](CO)[C@@H](O)C4(F)F)c(=O)n3)cc2c1 [Int 3-3]

half-life (Human liver S9 stability; human liver S9, read-out: t1/2 Mean ± SE): 8.2 ± 0.2 min | microsomal CLint (Human liver S9 stability; human, liver S9, human liver S9, read-out: CLint Mean ± SE): 33.8 ± 0.92 µL/min/mg | Slope Mean ± SE (Mouse liver S9 stability; mouse liver S9): −0.06127 ± 0.006525 | half-life (Mouse liver S9 stability; mouse liver S9, read-out: t1/2 Mean ± SE): 11.3 ± 1.2 min | microsomal CLint (Mouse liver S9 stability; mouse, liver S9, mouse liver S9, read-out: CLint Mean ± SE): 24.5 ± 2.61 µL/min/mg | Slope Mean ± SE ([8]; monkey liver S9): −0.1391 ± 0.01406 | half-life ([8]; monkey liver S9, read-out: t1/2 Mean ± SE): 5 ± 0.5 min | microsomal CLint ([8]; monkey, liver S9, monkey liver S9, read-out: CLint Mean ± SE): 55.6 ± 5.62 µL/min/mg | Slope Mean ± SE (Dog liver S9 stability; dog liver S9): −0.03892 ± 0.001665 | half-life (Dog liver S9 stability; dog liver S9, read-out: t1/2 Mean ± SE): 17.8 ± 0.8 min | microsomal CLint (Dog liver S9 stability; dog, liver S9, dog liver S9, read-out: CLint Mean ± SE): 15.6 ± 0.666 µL/min/mg | Slope Mean ± SE (Rat liver S9 stability; rat liver S9): −0.03134 ± 0.00198 | half-life (Rat liver S9 stability; rat liver S9, read-out: t1/2 Mean ± SE): 22.1 ± 1.4 min | microsomal CLint (Rat liver S9 stability; rat, liver S9, rat liver S9, read-out: CLint Mean ± SE): 12.5 ± 0.792 µL/min/mg
Molecule: COc1cc2ccc(=O)oc2cc1O [Scopoletin, reference compound]

Molecule: Gemcitabine monophosphate
AUC0-last ([9]; after iv Compound 1 11.6 mg/kg): 0.840 ng·h/mL | Cmax ([9]; after iv Compound 1 11.6 mg/kg): 33.6 ng/mL | MRT0-last ([9]; after iv Compound 1 11.6 mg/kg): 1.79 min | Tmax ([9]; after iv Compound 1 11.6 mg/kg): 1.5 min | AUC0-last ([9]; after iv Compound 1 23.2 mg/kg): 1.18 ng·h/mL | AUC(0-inf) ([9]; after iv Compound 1 23.2 mg/kg): 1.44 ng·h/mL | Cmax ([9]; after iv Compound 1 23.2 mg/kg): 30.4 ng/mL | MRT0-inf ([9]; after iv Compound 1 23.2 mg/kg): 3.3 min | MRT0-last ([9]; after iv Compound 1 23.2 mg/kg): 2.38 min | Tmax ([9]; after iv Compound 1 23.2 mg/kg): 1.5 min | t1/2 ([9]; after iv Compound 1 23.2 mg/kg): 1.64 min
